According to patent CN109776561A, “化合物cytorhizins B和C及其制备方法和在制备抗肿瘤药物中的应用” (Institute of Microbiology of Guangdong Academy of Sciences, priority 2019, dated 2019):

Experiments:
Format in all cases: cell-based
[1] = system: HepG-2 liver cancer cells (肝癌细胞HepG-2); assay: SRB cytotoxicity assay, HepG-2; settings: HepG-2, SRB, 72 h
[2] = system: NCI-H460 cells (NCI-H460细胞); assay: SRB cytotoxicity assay, NCI-H460; settings: 72 h
[3] = system: MCF-7 breast cancer cells (乳腺癌细胞MCF-7); assay: SRB cytotoxicity assay, MCF-7; settings: MCF-7, SRB, 72 h
[4] = system: SF-268 nerve cancer cells (神经癌细胞SF-268); assay: SRB cytotoxicity assay, SF-268; settings: SF-268, SRB, 72 h

Cc1cc(O)c2c3c1OC(C)(C)[C@@H](CCl)O[C@]31Oc3cccc(O)c3[C@@]2(O)[C@H]1C [cytorhizin B]
IC50 [1]: 29.4 µM | IC50 [2]: 32.8 µM | IC50 [3]: 30.1 µM | IC50 [4]: 34.8 µM

COC[C@H]1O[C@]23Oc4cccc(O)c4[C@](O)(c4c(O)cc(C)c(c42)OC1(C)C)[C@H]3C [cytorhizin C]
IC50 [1]: 68.6 µM | IC50 [2]: 54.7 µM | IC50 [3]: 58.6 µM | IC50 [4]: 36.8 µM

N.N.[Cl][Pt][Cl] [顺铂, reference compound]
IC50 [1]: 2.4 µM | IC50 [2]: 1.6 µM | IC50 [3]: 3.2 µM | IC50 [4]: 3.3 µM
